Source: article PMC10106510 (European Journal of Medicinal Chemistry, 2023)

How the values were obtained:
[1] = system: Balb/c mice
[2] = system: SARS-CoV-2 RNA (ORF1b, Spike) in infected Caco-2 cells; assay type: cell-based
[3] = system: SARS-CoV-2 infected Caco-2 cells (IFN-α, IL-6, OAS1 mRNA); assay type: cell-based, Human; conditions: 20 μg/mL
[4] = system: Balb/c mice; conditions: 25, 50, and 100 mg/kg, intraperitoneal
[5] = target: CYP3A4 (Homo sapiens, UniProt P08684)
[6] = target: T1, SARS-CoV-2 PLpro (Severe acute respiratory syndrome coronavirus 2, UniProt P0DTD1); assay: Papain-like protease; conditions: variable results in dose-dependent study, IC50 not determined
[7] = system: MERS-CoV PLpro; conditions: cited from earlier work
[8] = target: T1, SARS-CoV-2 PLpro; conditions: cited from earlier work

CYP3A4, sequence (P08684 whole entry): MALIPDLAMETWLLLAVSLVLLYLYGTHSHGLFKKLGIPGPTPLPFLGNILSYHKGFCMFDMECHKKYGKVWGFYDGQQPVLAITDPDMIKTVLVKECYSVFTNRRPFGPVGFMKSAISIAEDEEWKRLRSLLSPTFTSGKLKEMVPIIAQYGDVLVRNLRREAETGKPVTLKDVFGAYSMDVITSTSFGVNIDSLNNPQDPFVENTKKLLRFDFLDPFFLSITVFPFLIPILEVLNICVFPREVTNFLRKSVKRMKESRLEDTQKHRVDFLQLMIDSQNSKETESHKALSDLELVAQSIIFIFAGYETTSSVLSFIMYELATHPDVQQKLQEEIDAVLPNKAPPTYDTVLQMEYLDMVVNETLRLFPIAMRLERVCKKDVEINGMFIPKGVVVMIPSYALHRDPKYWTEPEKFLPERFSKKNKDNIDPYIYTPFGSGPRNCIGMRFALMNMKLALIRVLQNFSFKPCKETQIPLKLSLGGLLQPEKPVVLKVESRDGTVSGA

With `COc1ccc2[nH]c3c(c2c1)C[C@]1(OC)CC[C@H]2c4[nH]c5ccccc5c4CCN2[C@@H]1C3` [SIMR3030] the platelet population ([1]; 25 mg/kg multiple dose, hematological analysis) was “slight reduction”, the “signs of toxicity or weight loss, multiple dose” value ([1]; 12.5 and 25 mg/kg, intraperitoneal, daily for 14 days) was “no signs of toxicity or weight loss” and the “microscopic investigation of organs (liver, spleen, kidneys, heart, lungs)” value ([1]; H&E staining, 12.5 and 25 mg/kg multiple dose) was “no histologic variations and no signs of toxic injury”. For the same compound, the “Spike RNA inhibition” value ([2]; 20 μg/mL, 1, 6 and 12 h) was “observed only after 6 and 12 h”, the “viral ORFb1 RNA inhibition” value ([2]; 20 μg/mL, at 1, 6 and 12 h) was “more than 70%” and the “IL-6 mRNA expression” value ([3]; at 1, 3 and 12 h) was “significantly reduced”. The “OAS1 mRNA expression” value ([3]; at 1, 3 and 12 h) was “significantly reduced”, the “IFN-α mRNA expression” value ([3]; at 1 and 3 h) was “significantly reduced” and the “signs of toxicity or body weight loss, single dose” value [4] was “no signs of toxicity or body weight loss”.

With `CC1(C)[C@H]2COc3ccc4ccccc4c3[C@H]2N=C2SC=C(c3ccc(S(=O)(=O)N4CCOCC4)cc3)N21` [SIMR1493] the “CYP3A4 IC50” value [5] was 134 µM.

For `COC(=O)C[C@@H]1COc2ccccc2[C@H](C(=O)NC(C)(C)C)N(CCc2c[nH]c3ccc(OC)cc23)C(=O)[C@@H]1c1nnc(-c2cccc(C(F)(F)F)c2)o1` [SIMR2304], the “PLpro inhibitory activity, initial screening” value [6] was “very strong inhibitory activity”.

For `Cc1ccc(N)cc1C(=O)N[C@H](C)c1cccc2ccccc12` [GRL0617], the “activity against MERS-CoV PLpro” value [7] is listed as “inactivity” and the “inhibitory activity in a cell-based assay” value [8] is listed as “moderate to weak”.
